Reference: paper PMC11290450, “Isocyanides inhibit bacterial pathogens by covalent targeting of essential metabolic enzymes” (Chemical Science, 2024)
In brackets after ≈: the same amount, converted by molar mass.

How the values were obtained:
[1] = biological target: T1, glutamine–fructose-6-phosphate aminotransferase (GlmS) (Staphylococcus aureus, UniProt Q2FWA0); test: GDH-coupled glutaminase assay (turnover reduced to about […] at […]); type: biochemical; settings: read-out: % residual turnover at 100 μM
T1 construct: recombinant wild-type GlmS
T1 sequence (Q2FWA0 entry or part of it): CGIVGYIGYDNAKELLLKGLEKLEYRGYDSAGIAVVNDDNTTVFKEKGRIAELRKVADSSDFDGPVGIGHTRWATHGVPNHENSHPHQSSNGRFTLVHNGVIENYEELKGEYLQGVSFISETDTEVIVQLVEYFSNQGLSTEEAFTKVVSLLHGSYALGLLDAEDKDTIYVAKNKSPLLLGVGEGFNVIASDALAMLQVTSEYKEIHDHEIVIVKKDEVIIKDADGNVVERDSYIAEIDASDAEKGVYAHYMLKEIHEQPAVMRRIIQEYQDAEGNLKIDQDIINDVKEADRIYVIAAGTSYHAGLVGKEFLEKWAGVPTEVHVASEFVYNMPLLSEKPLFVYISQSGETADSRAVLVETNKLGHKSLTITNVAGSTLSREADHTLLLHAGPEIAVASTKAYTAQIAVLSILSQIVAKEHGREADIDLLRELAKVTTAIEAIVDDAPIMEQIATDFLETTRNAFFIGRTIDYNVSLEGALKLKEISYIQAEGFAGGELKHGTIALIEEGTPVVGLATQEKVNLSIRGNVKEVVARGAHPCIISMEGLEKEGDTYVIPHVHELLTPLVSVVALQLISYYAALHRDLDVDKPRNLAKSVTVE

cytochrome P450 2C9 [2] = biological target: T2, cytochrome P450 2C9 (Homo sapiens, UniProt P11712); test: CYP inhibition assay (Table S3); type: biochemical
T2 construct: gene CYP2C9
T2 sequence (P11712 whole entry): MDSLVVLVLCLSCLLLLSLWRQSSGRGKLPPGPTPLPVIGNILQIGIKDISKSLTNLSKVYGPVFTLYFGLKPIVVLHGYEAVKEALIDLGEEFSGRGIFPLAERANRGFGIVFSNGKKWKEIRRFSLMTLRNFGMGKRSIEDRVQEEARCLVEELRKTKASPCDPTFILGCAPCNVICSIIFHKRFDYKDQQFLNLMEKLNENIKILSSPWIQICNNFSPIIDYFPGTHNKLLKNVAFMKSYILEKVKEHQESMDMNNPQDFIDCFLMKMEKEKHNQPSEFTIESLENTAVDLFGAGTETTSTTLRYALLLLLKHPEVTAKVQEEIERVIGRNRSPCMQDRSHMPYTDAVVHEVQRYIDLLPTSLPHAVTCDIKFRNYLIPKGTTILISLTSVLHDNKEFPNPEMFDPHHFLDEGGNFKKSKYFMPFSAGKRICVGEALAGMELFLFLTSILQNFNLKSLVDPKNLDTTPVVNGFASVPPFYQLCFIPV

cytochrome P450 3A4 [3] = biological target: T3, cytochrome P450 3A4 (Homo sapiens, UniProt P08684); test: CYP inhibition assay (Table S3); type: biochemical
T3 construct: gene CYP3A4
T3 sequence (P08684 2-503): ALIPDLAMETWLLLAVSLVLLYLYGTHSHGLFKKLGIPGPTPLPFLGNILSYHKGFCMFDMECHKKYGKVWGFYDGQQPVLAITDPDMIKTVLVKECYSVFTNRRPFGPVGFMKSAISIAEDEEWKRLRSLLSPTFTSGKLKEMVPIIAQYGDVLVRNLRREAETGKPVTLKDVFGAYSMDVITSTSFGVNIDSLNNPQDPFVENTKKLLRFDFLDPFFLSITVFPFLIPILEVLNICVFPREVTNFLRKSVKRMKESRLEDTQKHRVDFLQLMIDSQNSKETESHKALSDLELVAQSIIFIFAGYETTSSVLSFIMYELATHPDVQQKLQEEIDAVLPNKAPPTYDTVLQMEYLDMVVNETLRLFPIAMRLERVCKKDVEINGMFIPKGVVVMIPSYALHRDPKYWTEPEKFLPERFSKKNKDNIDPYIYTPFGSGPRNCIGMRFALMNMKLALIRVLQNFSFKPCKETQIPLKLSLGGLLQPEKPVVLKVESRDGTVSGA

cytochrome P450 1A2 [4] = biological target: T4, cytochrome P450 1A2 (Homo sapiens, UniProt P05177); test: CYP inhibition assay (Table S3); type: biochemical
T4 construct: gene CYP1A2
T4 sequence (P05177 2-516): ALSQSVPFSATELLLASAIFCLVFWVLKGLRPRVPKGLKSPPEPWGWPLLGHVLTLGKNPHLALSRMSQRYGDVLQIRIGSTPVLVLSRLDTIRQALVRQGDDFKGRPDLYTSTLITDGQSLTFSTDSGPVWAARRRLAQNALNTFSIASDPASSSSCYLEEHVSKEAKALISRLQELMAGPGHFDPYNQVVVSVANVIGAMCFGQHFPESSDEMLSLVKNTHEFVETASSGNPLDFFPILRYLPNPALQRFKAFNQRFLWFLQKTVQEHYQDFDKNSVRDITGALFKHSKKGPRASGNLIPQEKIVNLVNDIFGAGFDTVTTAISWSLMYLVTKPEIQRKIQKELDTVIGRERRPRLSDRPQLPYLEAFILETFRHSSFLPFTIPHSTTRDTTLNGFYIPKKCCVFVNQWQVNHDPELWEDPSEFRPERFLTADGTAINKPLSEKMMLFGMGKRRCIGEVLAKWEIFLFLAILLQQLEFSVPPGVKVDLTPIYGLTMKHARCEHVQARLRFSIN

[5] = biological target: T1, glutamine–fructose-6-phosphate aminotransferase (GlmS); test: GDH-coupled glutaminase assay; intact protein MS (+[…] Da, truncated adduct); competitive gel-based IA-alkyne labeling; isoDTB-ABPP; type: biochemical
cytochrome P450 2D6 [6] = biological target: T5, cytochrome P450 2D6 (Homo sapiens, UniProt P10635); test: CYP inhibition assay (Table S3); type: biochemical
T5 construct: gene CYP2D6
T5 sequence (P10635 whole entry): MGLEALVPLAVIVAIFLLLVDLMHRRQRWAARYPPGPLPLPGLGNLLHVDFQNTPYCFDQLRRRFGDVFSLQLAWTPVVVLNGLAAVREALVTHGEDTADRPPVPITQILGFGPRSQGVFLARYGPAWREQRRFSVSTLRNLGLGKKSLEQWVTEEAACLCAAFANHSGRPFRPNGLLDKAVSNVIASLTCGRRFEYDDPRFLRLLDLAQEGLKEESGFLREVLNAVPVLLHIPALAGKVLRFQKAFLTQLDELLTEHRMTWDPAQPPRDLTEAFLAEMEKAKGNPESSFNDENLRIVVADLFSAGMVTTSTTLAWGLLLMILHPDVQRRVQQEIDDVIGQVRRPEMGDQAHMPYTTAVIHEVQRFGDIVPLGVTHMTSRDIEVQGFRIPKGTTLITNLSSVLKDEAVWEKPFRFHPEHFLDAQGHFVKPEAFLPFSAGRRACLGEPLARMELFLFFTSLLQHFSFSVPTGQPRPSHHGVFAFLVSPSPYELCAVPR

E. coli K12 [7] = tested on: T6, E. coli K12; test: microbe, parasite or virus in culture; parameters: broth microdilution MIC, visible growth (turbidity or pellet); settings: Escherichia coli, K12, 20 h
T6 construct: K12
Method: (§1) faecalis, E. faecium. S. epidermidis, S. pyogenes and S. pneumonia strains were cultivated in brain heart infusion medium (BHB, 7.5 g/L brain infusion, 10 g/L heart infusion, 10 g/L casein peptone, 5 g/L NaCl, 2.5 g/L Na2HPO4, 2 g/L glucose). Cell culture Cell culture media and supplements were purchased from Merck. HeLa cells were cultured in Dulbecco’s Modified Eagle Medium (DMEM, high glucose, 4.5 g/L) supplemented with 10% fetal bovine serum (FBS) and 2 mM L-glutamine at 37 °C in a 5% CO2 atmosphere. Accutase (Merck) was used for cell detachment. Minimum inhibitory concentration (MIC) The minimum inhibitory concentration (MIC) was determined by using the broth microdilution assay. 1 µL of compound stock solution in DMSO was pipetted to the wells of row 1 of a sterile flat bottom 96-well plate containing 100 µL growth medium and thoroughly mixed. Subsequently, a 1:1 serial dilution was performed in the growth medium from row 1 to row 10. […] Plates were incubated for 20 h (37 °C, 200 rpm; for Streptococcus pneumoniae DSM30104 and Streptococcus pyogenes ATCC700294: 5% CO2 atmosphere, 37 °C without shaking), and the dilution series were analyzed for microbial growth, indicated by turbidity and/or a pellet. […] MIC values were determined in technical triplicates and confirmed in two or three independent biological experiments. […]

S. aureus USA300 Lac = tested on: T7, S. aureus USA300 Lac; test: microbe, parasite or virus in culture; parameters: broth microdilution MIC, visible growth (turbidity or pellet); settings: Staphylococcus aureus, USA300, 20 h
T7 construct: USA300 LAC
Method: as §1

A. baumannii 5075 = tested on: T8, A. baumannii 5075; test: microbe, parasite or virus in culture; parameters: broth microdilution MIC, visible growth (turbidity or pellet); settings: Acinetobacter baumannii, 5075, 20 h
T8 construct: AB5075
Method: (§2) faecalis, E. faecium. S. epidermidis, S. pyogenes and S. pneumonia strains were cultivated in brain heart infusion medium (BHB, 7.5 g/L brain infusion, 10 g/L heart infusion, 10 g/L casein peptone, 5 g/L NaCl, 2.5 g/L Na2HPO4, 2 g/L glucose). Cell culture Cell culture media and supplements were purchased from Merck. HeLa cells were cultured in Dulbecco’s Modified Eagle Medium (DMEM, high glucose, 4.5 g/L) supplemented with 10% fetal bovine serum (FBS) and 2 mM L-glutamine at 37 °C in a 5% CO2 atmosphere. Accutase (Merck) was used for cell detachment. Minimum inhibitory concentration (MIC) The minimum inhibitory concentration (MIC) was determined by using the broth microdilution assay. 1 µL of compound stock solution in DMSO was pipetted to the wells of row 1 of a sterile flat bottom 96-well plate containing 100 µL growth medium and thoroughly mixed. Subsequently, a 1:1 serial dilution was performed in the growth medium from row 1 to row 10. 50 µL of bacterial suspension (1:10,000 dilution of an overnight culture in the respective growth medium) was added to each well containing compound and the growth control (row 11). A sterile control containing only medium was included (row 12). The final volume was 100 µL per well. Plates were incubated for 20 h (37 °C, 200 rpm; […] ATCC700294: 5% CO2 atmosphere, 37 °C without shaking), and the dilution series were analyzed for microbial growth, indicated by turbidity and/or a pellet. The lowest concentration in the dilution series at which no growth of bacteria could be observed was defined as the MIC of the compound. MIC values were determined in technical triplicates and confirmed in two or three independent biological experiments. The [compound left out] library was screened once in technical triplicates. The MIC is reported as mean of technical triplicates. If the MIC varied between biological replicates, concentration ranges are indicated.

A. baumannii ATCC 19606 = tested on: T9, A. baumannii ATCC 19606; test: microbe, parasite or virus in culture; parameters: broth microdilution MIC, visible growth (turbidity or pellet); settings: Acinetobacter baumannii, ATCC19606, 20 h
T9 construct: ATCC 19606
Method: as §2

B. subtilis 168 = tested on: T10, B. subtilis 168; test: microbe, parasite or virus in culture; parameters: broth microdilution MIC, visible growth (turbidity or pellet); settings: Bacillus subtilis, 168, 20 h
T10 construct: 168
Method: as §2

E. coli K12 [8] = tested on: T6, E. coli K12; test: microbe, parasite or virus in culture; parameters: broth microdilution MIC, visible growth (turbidity or pellet); settings: Escherichia coli, K12, 20 h; remark: listed apart in the source
Method: as §2

E. coli UTI89 = tested on: T11, E. coli UTI89; test: microbe, parasite or virus in culture; parameters: broth microdilution MIC, visible growth (turbidity or pellet); settings: Escherichia coli, UTI89, 20 h
T11 construct: UTI89
Method: as §2

E. faecalis V583 = tested on: T12, E. faecalis V583; test: microbe, parasite or virus in culture; parameters: broth microdilution MIC, visible growth (turbidity or pellet); settings: Enterococcus faecalis, V583, 20 h
T12 construct: V583
Method: as §2

E. faecium DSM17050 = tested on: T13, E. faecium DSM17050; test: microbe, parasite or virus in culture; parameters: broth microdilution MIC, visible growth (turbidity or pellet); settings: Enterococcus faecium, DSM17050, 20 h
T13 construct: DSM 17050
Method: as §2

K. pneumoniae DSM 30104 = tested on: T14, K. pneumoniae DSM 30104; test: microbe, parasite or virus in culture; parameters: broth microdilution MIC, visible growth (turbidity or pellet); settings: Klebsiella pneumoniae, DSM30104, 20 h
T14 construct: DSM 30104
Method: as §2

L. monocytogenes EGD-e = tested on: T15, L. monocytogenes EGD-e; test: microbe, parasite or virus in culture; parameters: broth microdilution MIC, visible growth (turbidity or pellet); settings: Listeria monocytogenes, 20 h
T15 construct: EGD-e
Method: as §2

P. aeruginosa PAO1 = tested on: T16, P. aeruginosa PAO1; test: microbe, parasite or virus in culture; parameters: broth microdilution MIC, visible growth (turbidity or pellet); settings: Pseudomonas aeruginosa, PAO1, 20 h
T16 construct: PAO1
Method: as §2

S. aureus NCTC 8325 = tested on: T17, S. aureus NCTC 8325; test: microbe, parasite or virus in culture; parameters: broth microdilution MIC, visible growth (turbidity or pellet); settings: Staphylococcus aureus, NCTC8325, 20 h
T17 construct: NCTC 8325
Method: as §2

S. aureus USA300 LAC J2 = tested on: T18, S. aureus USA300 LAC J2; test: microbe, parasite or virus in culture; parameters: broth microdilution MIC, visible growth (turbidity or pellet); settings: Staphylococcus aureus, USA300, 20 h
T18 construct: USA300 LAC JE2
Method: as §2

S. epidermidis RP62 A = tested on: T19, S. epidermidis RP62 A; test: microbe, parasite or virus in culture; parameters: broth microdilution MIC, visible growth (turbidity or pellet); settings: Staphylococcus epidermidis, RP62A, 20 h
T19 construct: RP62A
Method: as §2

S. pneumoniae DSM 20567 = tested on: T20, S. pneumoniae DSM 20567; test: microbe, parasite or virus in culture; parameters: broth microdilution MIC, visible growth (turbidity or pellet); settings: Streptococcus pneumoniae, DSM20567, 20 h
T20 construct: DSM 20567
Method: as §2

S. pyogenes ATCC 700294 = tested on: T21, S. pyogenes ATCC 700294; test: microbe, parasite or virus in culture; parameters: broth microdilution MIC, visible growth (turbidity or pellet); settings: Streptococcus pyogenes, ATCC700294, 20 h
T21 construct: ATCC 700294
Method: as §2

S. typhimurium LT2 = tested on: T22, S. typhimurium LT2; test: microbe, parasite or virus in culture; parameters: broth microdilution MIC, visible growth (turbidity or pellet); settings: Salmonella enterica, TYPHIMURIUM, 20 h
T22 construct: LT2
Method: as §2

cytochrome P450 1A2 [9] = biological target: T4, cytochrome P450 1A2; test: biochemical; parameters: CYP inhibition in human liver microsomes, conversion of isoform-specific substrates; settings: substrate phenacetin; liver microsomes
Method: (§3) To cover a broad range of structurally diverse compounds, we gathered commercially available primary, secondary, tertiary, vinyl and aromatic [compound left out] for antibacterial testing (Table S1 ^†). […] The minimum inhibitory concentration (MIC) of forty-two compounds was determined in Gram-positive Staphylococcus aureus and Gram-negative Escherichia coli cells up to 50 μM. […] The compound was tested against a panel of Gram-positive and Gram-negative pathogens. Although no antibiotic effects against Gram-negative strains were observed, Bacillus subtilis, Listeria monocytogenes, Staphylococcus epidermidis, and Streptococcus pneumoniae could be inhibited at low micromolar concentrations of I16 (Table S2 ^†). […] This was further corroborated by evaluation I16 in four different human cytochrome P450 enzymes (CYPs).

cytochrome P450 2C9 [10] = biological target: T2, cytochrome P450 2C9; test: biochemical; parameters: CYP inhibition in human liver microsomes, conversion of isoform-specific substrates; settings: substrate diclofenac; liver microsomes
Method: as §3

cytochrome P450 2D6 [11] = biological target: T5, cytochrome P450 2D6; test: biochemical; parameters: CYP inhibition in human liver microsomes, conversion of isoform-specific substrates; settings: substrate dextromethorphan; liver microsomes
Method: as §3

cytochrome P450 3A4 [12] = biological target: T3, cytochrome P450 3A4; test: biochemical; parameters: CYP inhibition in human liver microsomes, conversion of isoform-specific substrates; settings: substrate midazolam; liver microsomes
Method: as §3

Structure (SMILES): NC(=O)CI [IA, iodoacetamide]
- remaining activity at 100 µM [1]: ~35%

Structure (SMILES): [C-]#[N+]C(c1ccc(F)cc1Cl)S(=O)(=O)c1ccc(C)cc1 (stereo not shown) [I16]
- CYP inhibition assay (Table S3) (cytochrome P450 2C9 [2]): I16 inhibited all tested CYP isoforms (2C9, 2D6, 1A2, and 3A4) at nanomolar concentrations
- CYP inhibition assay (Table S3) (cytochrome P450 3A4 [3]): I16 inhibited all tested CYP isoforms (2C9, 2D6, 1A2, and 3A4) at nanomolar concentrations
- CYP inhibition assay (Table S3) (cytochrome P450 1A2 [4]): I16 inhibited all tested CYP isoforms (2C9, 2D6, 1A2, and 3A4) at nanomolar concentrations
- GDH-coupled glutaminase assay; intact protein MS (+27.5 Da, truncated adduct); c [5]: glutamate release rate decreased concentration-dependently by I16, corroborating its interaction with the active site cysteine
- CYP inhibition assay (Table S3) (cytochrome P450 2D6 [6]): I16 inhibited all tested CYP isoforms (2C9, 2D6, 1A2, and 3A4) at nanomolar concentrations
- MIC (E. coli K12 [7]): > 50 µM
- MIC (S. aureus USA300 Lac): 1.56 µM (≈ 0.505 µg/mL)
- MIC (A. baumannii 5075): > 100 µM
- MIC (A. baumannii ATCC 19606): > 100 µM
- MIC (B. subtilis 168): 12.5 µM (≈ 4.05 µg/mL)
- MIC (E. coli K12 [8]): > 100 µM
- MIC (E. coli UTI89): > 100 µM
- MIC (E. faecalis V583): > 100 µM
- MIC (E. faecium DSM17050): > 100 µM
- MIC (K. pneumoniae DSM 30104): > 100 µM
- MIC (L. monocytogenes EGD-e): 1 µM (≈ 0.324 µg/mL)
- MIC (P. aeruginosa PAO1): > 100 µM
- MIC (S. aureus NCTC 8325): 0.78 to 1.56 µM (≈ 0.253 to 0.505 µg/mL)
- MIC (S. aureus USA300 LAC J2): 1.56 µM (≈ 0.505 µg/mL)
- MIC (S. epidermidis RP62 A): 1 µM (≈ 0.324 µg/mL)
- MIC (S. pneumoniae DSM 20567): 1.56 µM (≈ 0.505 µg/mL)
- MIC (S. pyogenes ATCC 700294): > 100 µM
- MIC (S. typhimurium LT2): > 100 µM
- IC50 (cytochrome P450 1A2 [9]): 0.0608 ± 0.017 µM
- IC50 (cytochrome P450 2C9 [10]): 0.144 ± 0.053 µM
- IC50 (cytochrome P450 2D6 [11]): 0.0593 ± 0.02 µM
- IC50 (cytochrome P450 3A4 [12]): 0.0261 ± 0.008 µM
